According to US20120010178A1, “METHODS AND COMPOUNDS FOR TREATMENT OF NEURODEGENERATIVE DISORDERS” (PRESIDENT AND FELLOWS OF HARVARD COLLEGE, priority 2008, published 2012):
Entries after “also recorded” stand apart in the source; their conditions may differ.

Assays:
[1] = system: SMN1 and SMN2 transcripts; experiment: qRT-PCR of SMN1 and SMN2 transcripts after PDGF-BB; format: cell-based, human; settings: 50 ng/ml, over three days
Procedure: Although there is much more known about growth factor specificity and downstream pathways that they activate, whether PDGF effect on SMN was mediated through the binding to the PDGFR was tested next. The SMN-increasing effects of PDGF were blocked by DMPQ and […], two small molecules inhibitors of the PDGF receptor (FIG. 21a). In addition PDGF neutralizing antibody titration were performed in the cells incubated with 20 ng/ml platelet-derived PDGF. Depending on the antibody concentration, gradient of SMN level decrease reaching 40% was observed (FIG. 21b). Moreover, as might be predicted, since there are appreciable levels of PDGF in the media serum in which the fibroblasts are normally maintained, simply adding PDGFR inhibitors DMPQ and AG-1296 to the media decreases the “basal” level of SMN in these cells down to 15-20%, (FIG. 22). […]
[…] was purified using Tri-Reagent (Sigma-Aldrich) protocol and quantified on the Nanodrop (Thermo Fisher Scientific). […] Synthesised cDNA was diluted 5 times and 1 μl of cDNA sample was PCR amplified using RT^2SYBR Green/ROX PCR Master Mix and primer assays for SMN1, SMN2, GAPDH (SABiosciences) genes on 7900HT Fast Real-Time PCR System (ABI). qPCR results were analyzed with RQ Manager Software (ABI) by […] quantification method.

SMN = SMN immunofluorescence quantification (cytoplasm, nucleus, GEMs) in fibroblasts from SMA patients; format: cell-based, human; settings: SMA patient fibroblasts
Procedure, shortened: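 SMN immunostained and imaged by automated confocal microscopy; per-cell cytoplasmic and nuclear SMN intensity and GEM number and intensity quantified. PFA fixation used for screening.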

PDGF-BB: human recombinant PDGF-BB
level of SMN1 and SMN2 transcripts [1]: little or no increase in SMN transcripts | levels of cytoplasmic and nuclear SMN (in words) (SMN; substance alone): strongest activator of SMN; also recorded: most potent growth factor that elevated SMN protein levels | Avg. SMN fold increase (SMN; human PDGF isoforms): 2-2.3 fold
